Reference: PMC4584933, “Establishing the pig as a large animal model for vaccine development against human cancer” (Frontiers in Genetics, 2015)

Legend:
SLA-1*07:02 = assay: Peptide-MHC class I complex stability, scintillation proximity assay (SPA); set-up: species or system pig; details: biotinylated recombinant SLA heavy chain, 125I-β2m, excess unlabeled β2m, read every 40 min, number only if t1/2 ≥ 0.5 h, '-' = not stably binding
In short: (§1)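 Biotinylated recombinant heavy chains captured on streptavidin scintillation plates with 125I-β2m and peptide; signal read every 40 min under dissociating conditions with excess unlabeled β2m. Signal duration gives complex half-life; ≥ 0.5 h counted as stable binder.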

PBMCs = assay: In vitro peptide stimulation of porcine PBMCs, IFN-γ release assay (ELISA); type: cell-based, pig; set-up: key to T cell response: “x” indicates that a response was found to this given peptide at least once; details: PBMCs of immunized pigs, 2 × 10^5/well, 5 μg/ml peptide, 67.5–70.0 h, IFN-γ ELISA; response = 2-fold increase vs day -2 and at least 25 pg/ml IFN-γ, found at least once; SLA restriction not included
SLA-1*04:01 = assay: Peptide-MHC class I complex stability, scintillation proximity assay (SPA); set-up: species or system pig; details: biotinylated recombinant SLA heavy chain, 125I-β2m, excess unlabeled β2m, read every 40 min, number only if t1/2 ≥ 0.5 h, '-' = not stably binding
In short: as §1

SLA-2*04:01 = assay: as above; set-up: species or system pig; details: biotinylated recombinant SLA heavy chain, 125I-β2m, excess unlabeled β2m, read every 40 min, number only if t1/2 ≥ 0.5 h, '-' = not stably binding
In short: as §1

SLA-3*04:01 = assay: as above; set-up: species or system pig; details: biotinylated recombinant SLA heavy chain, 125I-β2m, excess unlabeled β2m, read every 40 min, number only if t1/2 ≥ 0.5 h, '-' = not stably binding
In short: as §1

| Sequence | Binder (t1/2 ≥ 0.5 h): half-life of peptide-SLA-1*07:02 complex (SLA-1*07:02) | T cell response (PBMCs) | Binder (t1/2 ≥ 0.5 h): half-life of peptide-SLA-1*04:01 complex (SLA-1*04:01) | other results |
| --- | --- | --- | --- | --- |
| PPAHRNFLHSL [IDO98, porcine IDO-derived 9-11mer peptide] | 0.7 h | x | – | – |
| RISAFGYLE [RhoC43, porcine RhoC-derived 9-11mer peptide] | – | – | - (t1/2 (hours) is listed for each of the stably binding peptides (t1/2 ≥ 0.5 h)) | – |
| YVDPKLFFNVL [IDO136, porcine IDO-derived 9-11mer peptide] | – | – | - (t1/2 (hours) is listed for each of the stably binding peptides (t1/2 ≥ 0.5 h)) | – |
| EVDGKQVELAL [RhoC22, porcine RhoC-derived 9-11mer peptide] | – | – | 0.6 h | – |
| PMDNSWKIF [IDO96, porcine IDO-derived 9-11mer peptide] | – | – | 0.7 h | – |
| LWDTAGQEDY [RhoC38, porcine RhoC-derived 9-11mer peptide] | – | – | - (t1/2 (hours) is listed for each of the stably binding peptides (t1/2 ≥ 0.5 h)) | – |
| CPNVPIILV [RhoC5, porcine RhoC-derived 9-11mer peptide] | 0.7 h | x | – | – |
| NPLLSEGLLY [IDO88, porcine IDO-derived 9-11mer peptide] | 24.0 h | x | – | – |
| PPAHRNFLH [IDO97, porcine IDO-derived 9-11mer peptide] | 1.1 h | x | – | – |
| LPRNIAIPY [IDO70, porcine IDO-derived 9-11mer peptide] | 1.0 h | x | – | – |
| SPMDNSWKIF [IDO120, porcine IDO-derived 9-11mer peptide] | 2.6 h | x | – | – |
| ASAIKVIPTLF [IDO8, porcine IDO-derived 9-11mer peptide] | – | – | - (t1/2 (hours) is listed for each of the stably binding peptides (t1/2 ≥ 0.5 h)) | Binder (t1/2 ≥ 0.5 h): half-life of peptide-SLA-2*04:01 complex (SLA-2*04:01): - (t1/2 (hours) is listed for each of the stably binding peptides (t1/2 ≥ 0.5 h)) |
| DYDRLRPLSY [RhoC13, porcine RhoC-derived 9-11mer peptide] | – | – | - (t1/2 (hours) is listed for each of the stably binding peptides (t1/2 ≥ 0.5 h)) | – |
| EVFHQIHEY [IDO21, porcine IDO-derived 9-11mer peptide] | 10.1 h | x | – | Binder (t1/2 ≥ 0.5 h): half-life of peptide-SLA-2*04:01 complex (SLA-2*04:01): 23.8 h |
| MALDWWSPM [IDO75, porcine IDO-derived 9-11mer peptide] | 0.5 h | x | – | Binder (t1/2 ≥ 0.5 h): half-life of peptide-SLA-3*04:01 complex (SLA-3*04:01): - (t1/2 (hours) is listed for each of the stably binding peptides (t1/2 ≥ 0.5 h)) |
| PPILVYADCV [IDO99, porcine IDO-derived 9-11mer peptide] | 3.5 h | x | – | – |
| DPSGPMTYKNM [IDO12, porcine IDO-derived 9-11mer peptide] | 0.5 h | x | – | – |
| PLEELPHPY [IDO94, porcine IDO-derived 9-11mer peptide] | – | – | - (t1/2 (hours) is listed for each of the stably binding peptides (t1/2 ≥ 0.5 h)) | – |
| KKDPSGPMTY [IDO51, porcine IDO-derived 9-11mer peptide] | – | – | - (t1/2 (hours) is listed for each of the stably binding peptides (t1/2 ≥ 0.5 h)) | – |
| KLFFNVLRIY [IDO53, porcine IDO-derived 9-11mer peptide] | - (t1/2 (hours) is listed for each of the stably binding peptides (t1/2 ≥ 0.5 h)) | – | – | Binder (t1/2 ≥ 0.5 h): half-life of peptide-SLA-3*04:01 complex (SLA-3*04:01): - (t1/2 (hours) is listed for each of the stably binding peptides (t1/2 ≥ 0.5 h)) |
| ALEVFHQIHEY [IDO4, porcine IDO-derived 9-11mer peptide] | – | – | - (t1/2 (hours) is listed for each of the stably binding peptides (t1/2 ≥ 0.5 h)) | – |
| GSAAQSSIF [IDO33, porcine IDO-derived 9-11mer peptide] | – | – | - (t1/2 (hours) is listed for each of the stably binding peptides (t1/2 ≥ 0.5 h)) | Binder (t1/2 ≥ 0.5 h): half-life of peptide-SLA-2*04:01 complex (SLA-2*04:01): - (t1/2 (hours) is listed for each of the stably binding peptides (t1/2 ≥ 0.5 h)) |

| Sequence | Binder (t1/2 ≥ 0.5 h): half-life of peptide-SLA-1*07:02 complex (SLA-1*07:02) | T cell response (PBMCs) | Binder (t1/2 ≥ 0.5 h): half-life of peptide-SLA-1*04:01 complex (SLA-1*04:01) | other results |
| --- | --- | --- | --- | --- |
| DTDVILMCF [RhoC10, porcine RhoC-derived 9-11mer peptide] | – | – | 1.3 h | – |
| MVSLRNYHL [IDO83, porcine IDO-derived 9-11mer peptide] | – | – | - (t1/2 (hours) is listed for each of the stably binding peptides (t1/2 ≥ 0.5 h)) | – |
| SIDGLQGHKM [IDO115, porcine IDO-derived 9-11mer peptide] | – | – | - (t1/2 (hours) is listed for each of the stably binding peptides (t1/2 ≥ 0.5 h)) | – |
| SLENIPEKWTP [RhoC50, porcine RhoC-derived 9-11mer peptide] | – | – | - (t1/2 (hours) is listed for each of the stably binding peptides (t1/2 ≥ 0.5 h)) | – |
| TSSLHKALEVF [IDO123, porcine IDO-derived 9-11mer peptide] | – | – | - (t1/2 (hours) is listed for each of the stably binding peptides (t1/2 ≥ 0.5 h)) | Binder (t1/2 ≥ 0.5 h): half-life of peptide-SLA-2*04:01 complex (SLA-2*04:01): - (t1/2 (hours) is listed for each of the stably binding peptides (t1/2 ≥ 0.5 h)) |
| SKDQFPEVY [RhoC48, porcine RhoC-derived 9-11mer peptide] | – | – | - (t1/2 (hours) is listed for each of the stably binding peptides (t1/2 ≥ 0.5 h)) | Binder (t1/2 ≥ 0.5 h): half-life of peptide-SLA-2*04:01 complex (SLA-2*04:01): - (t1/2 (hours) is listed for each of the stably binding peptides (t1/2 ≥ 0.5 h)) |
| AIAKNLPEL [IDO2, porcine IDO-derived 9-11mer peptide] | – | – | - (t1/2 (hours) is listed for each of the stably binding peptides (t1/2 ≥ 0.5 h)) | – |
| YVDPKLFFNV [IDO135, porcine IDO-derived 9-11mer peptide] | – | – | - (t1/2 (hours) is listed for each of the stably binding peptides (t1/2 ≥ 0.5 h)) | – |
| DMANRISAFGY [RhoC8, porcine RhoC-derived 9-11mer peptide] | - (t1/2 (hours) is listed for each of the stably binding peptides (t1/2 ≥ 0.5 h)) | x | – | Binder (t1/2 ≥ 0.5 h): half-life of peptide-SLA-2*04:01 complex (SLA-2*04:01): 1.1 h |
| SLENIPEKW [RhoC49, porcine RhoC-derived 9-11mer peptide] | – | – | - (t1/2 (hours) is listed for each of the stably binding peptides (t1/2 ≥ 0.5 h)) | Binder (t1/2 ≥ 0.5 h): half-life of peptide-SLA-2*04:01 complex (SLA-2*04:01): - (t1/2 (hours) is listed for each of the stably binding peptides (t1/2 ≥ 0.5 h)) |
| SPMDNSWKI [IDO119, porcine IDO-derived 9-11mer peptide] | 1.9 h | x | – | – |
| YPDTDVILM [RhoC58, porcine RhoC-derived 9-11mer peptide] | 1.2 h | x | – | – |
| RGTGGTNVIDF [IDO103, porcine IDO-derived 9-11mer peptide] | – | – | - (t1/2 (hours) is listed for each of the stably binding peptides (t1/2 ≥ 0.5 h)) | – |
| LGLPPILVY [IDO65, porcine IDO-derived 9-11mer peptide] | - (t1/2 (hours) is listed for each of the stably binding peptides (t1/2 ≥ 0.5 h)) | – | – | Binder (t1/2 ≥ 0.5 h): half-life of peptide-SLA-2*04:01 complex (SLA-2*04:01): - (t1/2 (hours) is listed for each of the stably binding peptides (t1/2 ≥ 0.5 h)) |
| EDYDRLRPLSY [RhoC14, porcine RhoC-derived 9-11mer peptide] | – | – | - (t1/2 (hours) is listed for each of the stably binding peptides (t1/2 ≥ 0.5 h)) | Binder (t1/2 ≥ 0.5 h): half-life of peptide-SLA-2*04:01 complex (SLA-2*04:01): - (t1/2 (hours) is listed for each of the stably binding peptides (t1/2 ≥ 0.5 h)) |
| SIDSPDSLENI [RhoC47, porcine RhoC-derived 9-11mer peptide] | – | – | - (t1/2 (hours) is listed for each of the stably binding peptides (t1/2 ≥ 0.5 h)) | – |
| EVDGKQVEL [RhoC21, porcine RhoC-derived 9-11mer peptide] | – | – | - (t1/2 (hours) is listed for each of the stably binding peptides (t1/2 ≥ 0.5 h)) | – |
| MQRLAHLVLGY [IDO79, porcine IDO-derived 9-11mer peptide] | - (t1/2 (hours) is listed for each of the stably binding peptides (t1/2 ≥ 0.5 h)) | – | – | Binder (t1/2 ≥ 0.5 h): half-life of peptide-SLA-2*04:01 complex (SLA-2*04:01): - (t1/2 (hours) is listed for each of the stably binding peptides (t1/2 ≥ 0.5 h)); Binder (t1/2 ≥ 0.5 h): half-life of peptide-SLA-3*04:01 complex (SLA-3*04:01): - (t1/2 (hours) is listed for each of the stably binding peptides (t1/2 ≥ 0.5 h)) |
| VPSGSAAGF [IDO128, porcine IDO-derived 9-11mer peptide] | - (t1/2 (hours) is listed for each of the stably binding peptides (t1/2 ≥ 0.5 h)) | – | – | Binder (t1/2 ≥ 0.5 h): half-life of peptide-SLA-2*04:01 complex (SLA-2*04:01): - (t1/2 (hours) is listed for each of the stably binding peptides (t1/2 ≥ 0.5 h)) |
| HIDEDLGFAL [IDO35, porcine IDO-derived 9-11mer peptide] | – | – | - (t1/2 (hours) is listed for each of the stably binding peptides (t1/2 ≥ 0.5 h)) | – |
| GVPSGSAAGF [IDO34, porcine IDO-derived 9-11mer peptide] | – | – | - (t1/2 (hours) is listed for each of the stably binding peptides (t1/2 ≥ 0.5 h)) | – |
